Measured values reported in ChEMBL document CHEMBL2029277, “Discovery of XL413, a potent and selective CDC7 inhibitor” (Bioorg Med Chem Lett, 2012).

Experiments:
[1] = target: T1, Cell division cycle 7-related protein kinase (Homo sapiens, UniProt O00311); test: Inhibition of N-terminus Myc-tagged human CDC7 expressed in Escherichia coli by chemiluminescence assay in presence of ATP
[2] = target: Serine/threonine-protein kinase pim-1 (Homo sapiens, UniProt P11309); test: Inhibition of N-terminus His-tagged human PIM1 expressed in Escherichia coli using AKRRRLSA as substrate after 1 to 2 hrs by chemiluminescence assay
[3] = target: Casein kinase II alpha/beta (Homo sapiens, UniProt P68400); test: Inhibition of human tertrameric CK2alphabeta holoenzyme using casein as substrate after 1 to 2 hrs by chemiluminescence assay in presence of 2 uM ATP; type: protein-complex assay
[4] = target: T1, Cell division cycle 7-related protein kinase; test: Inhibition of CDC7 in human MDA-MB-231T cells assessed as inhibition of MCM2 phosphorylation at Ser53 after 4 hrs; type: cell-based
[5] = AUC in rat at 3 mg/kg, po; type: ADME, organism-based; set-up: dose 3 mg/kg, route oral; details: plasma
[6] = Drug uptake in tumor of Caco2 cells xenografted athymic nude mouse at 3 mg/kg, po measured after 4 hrs; type: ADME, organism-based, Neoplasm, Caco-2; set-up: dose 3 mg/kg, route oral; details: read-out: Drug uptake
Mus musculus [7] = test: Toxicity in athymic nude mouse bearing human Caco2 cells assessed as decrease in body weight at 30 mg/kg, po QD administered for 14 days; type: organism-based, Caco-2; set-up: dose 30 mg/kg, route oral; scale not given: the % may be the effect or the level left; details: in vivo, 336 h
Caco-2 [8] = test: Antitumor activity against human Caco2 cells xenografted in athymic nude mouse assessed as tumor regression at 30 mg/kg, po BID administered for 14 days; type: functional
Caco-2 [9] = test: Antitumor activity against human Caco2 cells xenografted in athymic nude mouse assessed as tumor growth inhibition at 10 mg/kg, po QD administered for 14 days; type: functional; details: Caco-2, 336 h, read-out: GI
Caco-2 [10] = test: Antitumor activity against human Caco2 cells xenografted in athymic nude mouse assessed as tumor growth inhibition at 30 mg/kg, po QD administered for 14 days; type: functional; details: Caco-2, 336 h, read-out: GI
Mus musculus [11] = test: Toxicity in athymic nude mouse bearing human Caco2 cells assessed as decrease in body weight at 10 mg/kg, po QD administered for 14 days; type: organism-based, Caco-2; set-up: dose 10 mg/kg, route oral; scale not given: the % may be the effect or the level left; details: in vivo, 336 h
[12] = Plasma concentration in athymic nude mouse bearing human Caco2 cells at 3 mg/kg, po measured after 4 hrs; type: ADME, organism-based, Caco-2; set-up: dose 3 mg/kg, route oral
[13] = Half life in rat; type: ADME, organism-based; details: in vivo
Mus musculus [14] = test: Toxicity in athymic nude mouse bearing human Caco2 cells assessed as decrease in body weight at 100 mg/kg, po QD administered for 14 days; type: organism-based, Caco-2; set-up: dose 100 mg/kg, route oral; scale not given: the % may be the effect or the level left; details: in vivo, 336 h
Caco-2 [15] = test: Antitumor activity against human Caco2 cells xenografted in athymic nude mouse assessed as tumor regression at 100 mg/kg, po Q2D administered for 14 days; type: functional
Caco-2 [16] = test: Antitumor activity against human Caco2 cells xenografted in athymic nude mouse assessed as tumor growth inhibition at 30 mg/kg, po BID administered for 14 days; type: functional; details: Caco-2, 336 h, read-out: GI
Cytochrome P450 2C19 = Cytochrome P450 2C19 (Homo sapiens, UniProt P33261); test: Inhibition of CYP2C19; type: ADME
[17] = Cmax in rat at 3 mg/kg, po; type: ADME, organism-based; set-up: dose 3 mg/kg, route oral; details: in vivo
Caco-2 [18] = test: Antitumor activity against human Caco2 cells xenografted in athymic nude mouse assessed as tumor regression at 100 mg/kg, po QD administered for 14 days; type: functional
Mus musculus [19] = test: Toxicity in athymic nude mouse bearing human Caco2 cells assessed as decrease in body weight at 30 mg/kg, po BID administered for 14 days; type: organism-based, Caco-2; set-up: dose 30 mg/kg, route oral; scale not given: the % may be the effect or the level left; details: in vivo, 336 h
[20] = Plasma concentration in athymic nude mouse bearing human Caco2 cells at 100 mg/kg, po measured after 4 hrs; type: ADME, organism-based, Caco-2; set-up: dose 100 mg/kg, route oral
Caco-2 [21] = test: Induction of apoptosis in human Caco2 cells assessed as increase in caspase 3/7 activity; type: functional, cell-based
Cytochrome P450 2D6 = Cytochrome P450 2D6 (Homo sapiens, UniProt P10635); test: Inhibition of CYP2D6; type: ADME
[22] = Plasma concentration in mouse at 100 mg/kg, po measured after 4 hrs; type: ADME, organism-based; set-up: dose 100 mg/kg, route oral
[23] = Plasma concentration in mouse at 100 mg/kg, po measured after 1 hr; type: ADME, organism-based; set-up: dose 100 mg/kg, route oral
Cytochrome P450 3A4 = Cytochrome P450 3A4 (Homo sapiens, UniProt P08684); test: Inhibition of CYP3A4; type: ADME
[24] = Drug uptake in tumor of Caco2 cells xenografted athymic nude mouse at 100 mg/kg, po measured after 4 hrs; type: ADME, organism-based, Neoplasm, Caco-2; set-up: dose 100 mg/kg, route oral; details: read-out: Drug uptake
[25] = Oral bioavailability in rat at 3 mg/kg; type: ADME, organism-based; details: in vivo
[26] = Plasma concentration in athymic nude mouse bearing human Caco2 cells at 10 mg/kg, po measured after 4 hrs; type: ADME, organism-based, Caco-2; set-up: dose 10 mg/kg, route oral
Mus musculus [27] = test: Toxicity in athymic nude mouse bearing human Caco2 cells assessed as decrease in body weight at 3 mg/kg, po QD administered for 14 days; type: organism-based, Caco-2; set-up: dose 3 mg/kg, route oral; scale not given: the % may be the effect or the level left; details: in vivo, 336 h
Cytochrome P450 2C9 = Cytochrome P450 2C9 (Homo sapiens, UniProt P11712); test: Inhibition of CYP2C9; type: ADME
Mus musculus [28] = test: Inhibition of CDC7-mediated MCM2 phosphorylation at Ser40/41 in human Caco2 cells xenografted in athymic nude mouse at 3 mg/kg, po after 4 hrs by Western blot analysis; type: functional; details: Caco-2, 4 h
Mus musculus [29] = test: Toxicity in athymic nude mouse bearing human Caco2 cells assessed as decrease in body weight at 100 mg/kg, po Q2D administered for 14 days; type: organism-based, Caco-2; set-up: dose 100 mg/kg, route oral; scale not given: the % may be the effect or the level left; details: in vivo, 336 h
Caco-2 [30] = test: Antitumor activity against human Caco2 cells xenografted in athymic nude mouse assessed as tumor growth inhibition at 100 mg/kg, po QD administered for 14 days; type: functional; details: Caco-2, 336 h, read-out: GI
Caco-2 [31] = test: Antiproliferative activity against human Caco2 cells assessed as inhibition of anchorage-independent growth in soft agar; type: functional, cell-based
Caco-2 [32] = test: Antiproliferative activity against human Caco2 cells assessed as decrease in cell viability after 3 days by Cell Titer-Glo assay; type: functional, cell-based; details: Caco-2, 72 h
Mus musculus [33] = test: Inhibition of CDC7-mediated MCM2 phosphorylation at Ser40/41 in human Caco2 cells xenografted in po dosed athymic nude mouse by after 4 hrs Western blot analysis; type: functional; details: Caco-2, po
[34] = Drug uptake in tumor of Caco2 cells xenografted athymic nude mouse at 30 mg/kg, po measured after 4 hrs; type: ADME, organism-based, Neoplasm, Caco-2; set-up: dose 30 mg/kg, route oral; details: read-out: Drug uptake
Caco-2 [35] = test: Antitumor activity against human Caco2 cells xenografted in athymic nude mouse assessed as tumor growth inhibition at 100 mg/kg, po Q2D administered for 14 days; type: functional; details: Caco-2, 336 h, read-out: GI
Caco-2 [36] = test: Antitumor activity against human Caco2 cells xenografted in athymic nude mouse assessed as tumor growth inhibition at 3 mg/kg, po QD administered for 14 days; type: functional; details: Caco-2, 336 h, read-out: GI
[37] = Plasma concentration in athymic nude mouse bearing human Caco2 cells at 30 mg/kg, po measured after 4 hrs; type: ADME, organism-based, Caco-2; set-up: dose 30 mg/kg, route oral
[38] = Drug uptake in tumor of Caco2 cells xenografted athymic nude mouse at 10 mg/kg, po measured after 4 hrs; type: ADME, organism-based, Neoplasm, Caco-2; set-up: dose 10 mg/kg, route oral; details: read-out: Drug uptake
[39] = Volume of distribution at steady state in rat; type: ADME, organism-based; details: in vivo, read-out: Vdss
Cytochrome P450 1A2 = target: T2, Cytochrome P450 1A2 (Homo sapiens, UniProt P05177); test: Inhibition of CYP1A2; type: ADME
T2 sequence (P05177 whole entry): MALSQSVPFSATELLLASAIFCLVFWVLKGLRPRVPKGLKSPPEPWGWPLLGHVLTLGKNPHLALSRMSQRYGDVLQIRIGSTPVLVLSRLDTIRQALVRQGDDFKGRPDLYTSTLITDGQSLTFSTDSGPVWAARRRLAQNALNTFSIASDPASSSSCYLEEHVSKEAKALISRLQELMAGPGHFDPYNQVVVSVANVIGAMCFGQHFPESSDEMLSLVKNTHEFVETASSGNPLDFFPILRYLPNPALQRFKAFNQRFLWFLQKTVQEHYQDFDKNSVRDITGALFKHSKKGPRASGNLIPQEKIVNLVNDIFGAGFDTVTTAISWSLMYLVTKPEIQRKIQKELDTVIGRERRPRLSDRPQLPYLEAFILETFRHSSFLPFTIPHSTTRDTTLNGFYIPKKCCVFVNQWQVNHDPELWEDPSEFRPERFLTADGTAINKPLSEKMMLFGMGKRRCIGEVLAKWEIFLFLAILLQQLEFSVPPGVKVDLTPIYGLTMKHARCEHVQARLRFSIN

Caco-2 [40] = test: Antiproliferative activity against human Caco2 cells after 3 days by BrdU incorporation assay; type: functional, cell-based; details: Caco-2, 72 h
[41] = Clearance in rat; type: ADME, organism-based; details: in vivo
[42] = target: T1, Cell division cycle 7-related protein kinase; test: Inhibition of CDC7 in human Caco2 cells assessed as inhibition of MCM2 phosphorylation at Ser53 after 4 hrs; type: cell-based, Caco-2

T1 sequence (O00311 whole entry): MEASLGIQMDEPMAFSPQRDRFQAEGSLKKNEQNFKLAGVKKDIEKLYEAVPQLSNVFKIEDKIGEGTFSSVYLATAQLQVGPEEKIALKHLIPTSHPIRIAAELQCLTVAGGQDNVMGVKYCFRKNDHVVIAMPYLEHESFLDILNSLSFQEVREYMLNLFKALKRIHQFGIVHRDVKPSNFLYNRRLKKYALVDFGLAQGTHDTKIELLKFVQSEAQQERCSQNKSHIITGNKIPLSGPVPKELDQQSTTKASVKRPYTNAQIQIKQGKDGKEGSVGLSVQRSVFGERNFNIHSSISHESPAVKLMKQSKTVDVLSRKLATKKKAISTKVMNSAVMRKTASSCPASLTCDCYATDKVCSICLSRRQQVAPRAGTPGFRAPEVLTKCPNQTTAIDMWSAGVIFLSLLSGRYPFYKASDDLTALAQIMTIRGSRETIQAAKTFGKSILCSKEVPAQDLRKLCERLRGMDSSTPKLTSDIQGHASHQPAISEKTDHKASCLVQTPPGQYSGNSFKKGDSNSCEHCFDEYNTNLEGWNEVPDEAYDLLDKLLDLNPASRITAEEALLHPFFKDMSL
Casein kinase II alpha/beta, sequence (P67870 whole entry): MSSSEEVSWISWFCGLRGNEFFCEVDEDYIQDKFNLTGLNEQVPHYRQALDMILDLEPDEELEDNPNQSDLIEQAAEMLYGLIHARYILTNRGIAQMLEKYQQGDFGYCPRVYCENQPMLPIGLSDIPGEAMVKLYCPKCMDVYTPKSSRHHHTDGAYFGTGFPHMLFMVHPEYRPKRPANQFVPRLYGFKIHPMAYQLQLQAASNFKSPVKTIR
Casein kinase II alpha/beta, sequence (P68400 whole entry): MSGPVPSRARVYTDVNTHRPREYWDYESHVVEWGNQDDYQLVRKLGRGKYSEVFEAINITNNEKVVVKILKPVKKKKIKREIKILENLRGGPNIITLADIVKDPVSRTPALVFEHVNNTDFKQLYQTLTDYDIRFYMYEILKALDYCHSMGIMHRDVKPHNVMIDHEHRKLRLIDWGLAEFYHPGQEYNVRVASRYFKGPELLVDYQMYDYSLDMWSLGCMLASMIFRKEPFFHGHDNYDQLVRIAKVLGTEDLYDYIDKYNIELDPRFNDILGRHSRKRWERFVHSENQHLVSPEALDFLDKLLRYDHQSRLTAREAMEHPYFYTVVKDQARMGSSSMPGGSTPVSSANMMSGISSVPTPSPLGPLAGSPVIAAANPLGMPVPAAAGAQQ
Serine/threonine-protein kinase pim-1, sequence (P11309 whole entry): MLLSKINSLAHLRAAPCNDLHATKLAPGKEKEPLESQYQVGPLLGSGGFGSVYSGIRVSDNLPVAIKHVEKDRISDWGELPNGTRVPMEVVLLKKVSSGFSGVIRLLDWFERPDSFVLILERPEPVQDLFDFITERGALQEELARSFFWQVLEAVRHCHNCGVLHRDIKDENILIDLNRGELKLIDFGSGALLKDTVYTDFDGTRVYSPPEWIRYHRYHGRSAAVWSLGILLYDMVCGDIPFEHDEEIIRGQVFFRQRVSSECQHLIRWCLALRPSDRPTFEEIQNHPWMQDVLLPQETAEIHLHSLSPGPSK
Cytochrome P450 2C9, sequence (P11712 whole entry): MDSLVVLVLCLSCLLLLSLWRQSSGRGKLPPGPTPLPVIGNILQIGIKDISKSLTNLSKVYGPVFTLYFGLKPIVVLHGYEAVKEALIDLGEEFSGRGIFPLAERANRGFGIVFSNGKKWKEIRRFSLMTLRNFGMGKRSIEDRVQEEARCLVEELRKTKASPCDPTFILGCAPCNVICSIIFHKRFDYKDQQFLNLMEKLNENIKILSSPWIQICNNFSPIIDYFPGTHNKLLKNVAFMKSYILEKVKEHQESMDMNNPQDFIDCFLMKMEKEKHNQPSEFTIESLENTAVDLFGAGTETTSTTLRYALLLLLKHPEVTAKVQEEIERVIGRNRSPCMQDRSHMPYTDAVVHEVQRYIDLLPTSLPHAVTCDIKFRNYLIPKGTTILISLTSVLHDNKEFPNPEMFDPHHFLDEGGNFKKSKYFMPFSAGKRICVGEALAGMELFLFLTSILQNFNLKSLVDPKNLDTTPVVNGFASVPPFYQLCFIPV
Cytochrome P450 2D6, sequence (P10635 whole entry): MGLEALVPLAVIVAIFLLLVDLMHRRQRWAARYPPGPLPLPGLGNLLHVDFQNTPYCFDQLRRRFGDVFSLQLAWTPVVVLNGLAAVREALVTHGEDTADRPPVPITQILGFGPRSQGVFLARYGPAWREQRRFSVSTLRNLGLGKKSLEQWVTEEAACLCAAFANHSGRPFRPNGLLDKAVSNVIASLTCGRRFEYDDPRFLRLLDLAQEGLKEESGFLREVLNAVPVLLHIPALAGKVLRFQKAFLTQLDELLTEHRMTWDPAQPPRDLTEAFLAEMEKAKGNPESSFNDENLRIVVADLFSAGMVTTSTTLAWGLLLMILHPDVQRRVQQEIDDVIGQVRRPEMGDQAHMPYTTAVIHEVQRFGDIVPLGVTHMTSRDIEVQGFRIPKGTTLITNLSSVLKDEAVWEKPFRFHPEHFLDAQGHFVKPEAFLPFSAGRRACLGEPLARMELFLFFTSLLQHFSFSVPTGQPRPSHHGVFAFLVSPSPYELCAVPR
Cytochrome P450 3A4, sequence (P08684 whole entry): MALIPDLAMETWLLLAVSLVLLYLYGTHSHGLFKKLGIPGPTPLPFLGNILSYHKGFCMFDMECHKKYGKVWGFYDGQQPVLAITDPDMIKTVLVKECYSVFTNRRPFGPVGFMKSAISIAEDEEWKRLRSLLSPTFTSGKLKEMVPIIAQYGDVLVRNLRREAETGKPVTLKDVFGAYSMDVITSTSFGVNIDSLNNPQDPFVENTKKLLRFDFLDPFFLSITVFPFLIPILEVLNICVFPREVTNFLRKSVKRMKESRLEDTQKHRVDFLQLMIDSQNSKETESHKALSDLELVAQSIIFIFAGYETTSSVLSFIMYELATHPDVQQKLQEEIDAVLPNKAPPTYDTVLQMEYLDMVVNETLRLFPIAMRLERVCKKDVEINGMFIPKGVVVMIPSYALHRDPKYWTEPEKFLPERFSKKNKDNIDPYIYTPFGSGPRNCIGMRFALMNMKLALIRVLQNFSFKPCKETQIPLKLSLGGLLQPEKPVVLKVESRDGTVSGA
Cytochrome P450 2C19, sequence (P33261 whole entry): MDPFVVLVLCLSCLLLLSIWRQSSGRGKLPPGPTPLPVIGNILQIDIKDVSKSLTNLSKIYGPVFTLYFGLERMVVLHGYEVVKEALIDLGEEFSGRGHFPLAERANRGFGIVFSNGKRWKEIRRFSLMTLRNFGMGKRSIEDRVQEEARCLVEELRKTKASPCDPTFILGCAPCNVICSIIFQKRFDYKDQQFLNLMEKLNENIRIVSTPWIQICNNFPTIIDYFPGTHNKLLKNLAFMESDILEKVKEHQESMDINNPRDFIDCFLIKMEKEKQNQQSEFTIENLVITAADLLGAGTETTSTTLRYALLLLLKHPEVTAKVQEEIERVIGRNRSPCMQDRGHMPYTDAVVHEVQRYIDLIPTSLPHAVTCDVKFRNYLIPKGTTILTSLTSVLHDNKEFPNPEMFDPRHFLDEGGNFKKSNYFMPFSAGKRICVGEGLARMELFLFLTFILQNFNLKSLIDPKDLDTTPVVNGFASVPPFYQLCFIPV

## O=c1[nH]c([C@H]2CCCN2)nc2c1oc1ccc(Br)cc12
[1]
  IC50: 70 nM
[2]
  IC50: 104 nM
[3]
  IC50: 1510 nM
[4]
  IC50: 4590 nM

## CN1CCC[C@H]1c1nc2c(oc3ccc(Br)cc32)c(=O)[nH]1
[1]
  IC50: 7.3 nM
[2]
  IC50: 11 nM
[3]
  IC50: 63 nM
[4]
  IC50: 802 nM

## O=c1[nH]c([C@@H]2CCCN2)nc2c1oc1ccc(Cl)cc12
[5]
  AUC: 75 µM·h
[6]
  concentration at 4 h: 3.2 µM
Mus musculus [7]
  Activity: 8.3%
Caco-2 [8]
  Activity: 32%
[1]
  IC50: 3.4 nM
Caco-2 [9]
  inhibition in vivo at 10 mg/kg: 36%
Caco-2 [10]
  inhibition in vivo at 30 mg/kg: 83%
Mus musculus [11]
  Activity: 3.4%
[12]
  concentration at 4 h: 11 µM
[13]
  half-life: 2.32 h
Mus musculus [14]
  Activity: 4.7%
Caco-2 [15]
  Activity: 21%
Caco-2 [16]
  inhibition in vivo at 30 mg/kg: > 100%
Cytochrome P450 2C19
  IC50: > 50000 nM
[17]
  Cmax: 8.61 µM
Caco-2 [18]
  Activity: 70%
Mus musculus [19]
  Activity: 6.4%
[20]
  concentration at 4 h: 186 µM
Caco-2 [21]
  EC50: 2290 nM
Cytochrome P450 2D6
  IC50: > 50000 nM
[22]
  concentration at 4 h: 81 µM
[23]
  concentration at 1 h: 141 µM
Cytochrome P450 3A4
  IC50: > 50000 nM
[24]
  concentration at 4 h: 71.4 µM
[25]
  bioavailability: 95%
[26]
  concentration at 4 h: 40.1 µM
Mus musculus [27]
  Activity: 0.5%
Cytochrome P450 2C9
  IC50: > 50000 nM
Mus musculus [28]
  inhibition in vivo at 3 mg/kg: 70%
Mus musculus [29]
  Activity: 4.5%
Caco-2 [30]
  inhibition in vivo at 100 mg/kg: > 100%
Caco-2 [31]
  IC50: 715 nM
Caco-2 [32]
  IC50: 2140 nM
Mus musculus [33]
  ED50: < 3 mg/kg
[34]
  concentration at 4 h: 32.1 µM
Caco-2 [35]
  inhibition in vivo at 100 mg/kg: > 100%
Caco-2 [36]
  inhibition in vivo at 3 mg/kg: 8.7%
[2]
  IC50: 42 nM
[37]
  concentration at 4 h: 82.2 µM
[38]
  concentration at 4 h: 13.1 µM
[39]
  Vd: 0.55 L/kg
Cytochrome P450 1A2
  IC50: 6900 nM
[3]
  IC50: 215 nM
Caco-2 [40]
  IC50: 2680 nM
[41]
  clearance: 1.95 mL/min/kg
[4]
  IC50: 118 nM
[42]
  IC50: 140 nM
